In paper PMC5658448, “From receptor binding kinetics to signal transduction; a missing link in predicting in vivo drug-action” (Scientific Reports, 2017):
Read-outs that look alike come from different tables or passages of the source.

Assays:
[1] = target: human neurokinin 1 receptor (Homo sapiens, UniProt P25103); assay: Real-time cAMP accumulation assay (GloSensor) in CHOhNK1 cells; format: cell-based; conditions: for type of antagonism (insurmountability): antagonist pre-incubation before SP or NKA, cAMP and morphology assays; for decrease of onset of NKA-induced cAMP production: antagonist pretreatment
Description: Real-time cAMP production was measured using the life cell cAMP GloSensor^TM assay[11],[12]. The technology is based on a cAMP-biosensor, which undergoes a conformational change upon cAMP binding, followed by the turnover of Luciferin.
CHOhNK1 cells were transiently transfected with the pGloSensor™-22F cAMP (6 ng/µL) plasmid using FuGene HD (3 µL:1 µg DNA plasmid) as a transfection reagent. Accordingly, cells were harvested and reconstituted to 0.5 × 10^6 cells/ml (10,000 cells/well) in DMEM/F-12/ HEPES supplemented with 1% FCS, 2 mM glutamine and 1 mg/ml G418. The diluted plasmid solution was combined with the transfection reagent and incubated for 20 min at room temperature. Subsequently, the transfection mixture and cell solution were mixed for additional 5 min before plating in 384-well plates. The transfected cells were incubated for 24 h at 37 °C + 5% CO2 followed by treatment with Glo-substrate (3% v/v) for 2 h at room temperature. […] Real-time changes in the level of cAMP were detected using an Envision HTS microplate reader 2103 (PerkinElmer).
(§1) The onset of receptor activation was analyzed by calculating the slope with linear regression of the first 8 minutes of the cellular response.2 onset=Δcellularresponse/Δtime

NK1 receptor [2] = target: T1, NK1 receptor (Homo sapiens, UniProt P25103); assay: Impedance-based morphology assay (xCELLigence) in U-251 MG cells; format: cell-based; parameters: host or cells: U-251 MG cells; conditions: for Onset of receptor activation, morphology, NKA / Onset of receptor activation, morphology, SP / decrease of onset of NKA-induced morphological changes / decrease of onset of SP-induced impedance changes: first 8 min; for decrease of onset of NKA-induced morphological changes / decrease of onset of SP-induced impedance changes: antagonist pretreatment; for increase of EC50 value of NKA: xCELLigence, highest antagonist concentration; for IC50: antagonist pre-incubation
Description: Label-free morphology assays were performed using the xCELLigence RTCA system as described previously[27],[42].
as §1

NK1 receptor [3] = target: T1, NK1 receptor; parameters: host or cells: U-251 MG cells; conditions: room temperature; cited from earlier work
NK1 receptor [4] = target: T1, NK1 receptor; assay: Radioligand binding affinity at the NK1 receptor ([3H][Sar9,Met(O2)11]SP, CHOhNK1 membranes)
NK1 receptor [5] = target: T1, NK1 receptor; assay: Dual-point competition association assay (kinetic rate index); format: binding; conditions: 4 °C; Bt1 (30 min)/Bt2 (120 min); vs radioligand [3H][Sar9,Met(O2)11]SP
Description: Dual-point competition association assays were performed as prescribed previously, following the radioligand binding protocol of Nederpelt et al.[27].
Data from dual-point competition association assays were analyzed by dividing the specific binding at t1 (Bt1) with the specific binding at t2 (Bt2).1 KRI=Bt1/Bt2 Data from morphology and cAMP experiments were analyzed as described previously. […] Results were normalized to the maximal response induced by agonist without antagonist.

NK1 receptor [6] = target: T1, NK1 receptor; parameters: host or cells: U-251 MG cells; conditions: cited from earlier work
NK1 receptor [7] = target: T1, NK1 receptor; parameters: host or cells: U-251 MG cells; conditions: agonist alone; normalized to NKA only; cited from earlier work
[8] = NKA after 0.07 nM antagonist, first 8 min
[9] = NKA after 0.21 nM antagonist, first 8 min
[10] = NKA after 0.7 nM antagonist, first 8 min
[11] = SP after 0.07 nM antagonist, first 8 min
[12] = SP after 0.21 nM antagonist, first 8 min
[13] = SP after 0.7 nM antagonist, first 8 min
[14] = NKA after 0.07 nM antagonist, normalized to NKA only
[15] = NKA after 0.21 nM antagonist, normalized to NKA only
[16] = NKA after 0.7 nM antagonist, normalized to NKA only
[17] = SP after 0.07 nM antagonist, normalized to SP only
[18] = SP after 0.21 nM antagonist, normalized to SP only
[19] = SP after 0.7 nM antagonist, normalized to SP only

human neurokinin 1 receptor, sequence (P25103 whole entry): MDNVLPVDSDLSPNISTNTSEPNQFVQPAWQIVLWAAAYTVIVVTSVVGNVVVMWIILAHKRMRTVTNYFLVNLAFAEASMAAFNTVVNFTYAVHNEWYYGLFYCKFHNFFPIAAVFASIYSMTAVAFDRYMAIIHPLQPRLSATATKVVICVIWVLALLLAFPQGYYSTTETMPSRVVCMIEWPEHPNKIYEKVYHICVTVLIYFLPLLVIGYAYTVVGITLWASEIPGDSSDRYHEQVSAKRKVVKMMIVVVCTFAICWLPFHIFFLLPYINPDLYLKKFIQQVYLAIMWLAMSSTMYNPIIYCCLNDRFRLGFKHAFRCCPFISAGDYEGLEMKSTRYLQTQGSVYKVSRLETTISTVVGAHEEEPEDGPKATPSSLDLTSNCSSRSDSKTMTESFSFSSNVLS
T1 sequence (P25103 whole entry): as above

## C[C@@H](O[C@H]1OCCN(Cc2n[nH]c(=O)[nH]2)[C@H]1c1ccc(F)cc1)c1cc(C(F)(F)F)cc(C(F)(F)F)c1 [Aprepitant, aprepitant]
[1]; [8]
  Onset of receptor activation, cAMP, NKA: 75 ± 13^NS RLU min^−1
[1]; [9]
  Onset of receptor activation, cAMP, NKA: 43 ± 7.7 RLU min^−1
[1]; [10]
  Onset of receptor activation, cAMP, NKA: 9.7 ± 1.6 RLU min^−1
[1]; [11]
  Onset of receptor activation, cAMP, SP: 94 ± 13 RLU min^−1
[1]; SP after 0.07 nM antagonist, normalized to SP only, read-out: Emax cAMP SP
  Emax: 62 ± 5.7%
[1]; [12]
  Onset of receptor activation, cAMP, SP: 63 ± 17 RLU min^−1
[1]; SP after 0.21 nM antagonist, normalized to SP only, read-out: Emax cAMP SP
  Emax: 55 ± 15%
[1]; [13]
  Onset of receptor activation, cAMP, SP: 36 ± 7 RLU min^−1
[1]; SP after 0.7 nM antagonist, normalized to SP only, read-out: Emax cAMP SP
  Emax: 19 ± 5.5%
[1]
  type of antagonism (insurmountability): fully insurmountable
[1]; antagonist pre-incubation, first 8 min
  decrease of onset of SP-induced cAMP production: up to 6 fold
[1]; first 8 min
  decrease of onset of NKA-induced cAMP production: 15 fold
[1]; cAMP assay
  decrease of potency of NKA: 10 fold
[1]; cAMP assay, highest antagonist concentration, read-out: decrease of Emax of SP in comparison to control
  Emax: > 80%
[1]; read-out: Emax cAMP NKA, NKA after 0.07 nM antagonist, normalized to NKA only
  Emax: 71 ± 13%
[1]; read-out: Emax cAMP NKA, NKA after 0.21 nM antagonist, normalized to NKA only
  Emax: 43 ± 19%
[1]; read-out: Emax cAMP NKA, NKA after 0.7 nM antagonist, normalized to NKA only
  Emax: 7.8 ± 4.2%
NK1 receptor [2]; NKA after 0.07 nM antagonist
  Onset of receptor activation, morphology, NKA: 0.05 ± 0.011^NS NCI min^−1
NK1 receptor [2]; NKA after 0.21 nM antagonist
  Onset of receptor activation, morphology, NKA: 0.03 ± 0.007^NS NCI min^−1
NK1 receptor [2]; NKA after 0.7 nM antagonist
  Onset of receptor activation, morphology, NKA: 0.006 ± 0.003 NCI min^−1
NK1 receptor [2]; SP after 0.07 nM antagonist
  Onset of receptor activation, morphology, SP: 0.05 ± 0.002^NS NCI min^−1
NK1 receptor [2]; SP after 0.21 nM antagonist
  Onset of receptor activation, morphology, SP: 0.04 ± 0.006^NS NCI min^−1
NK1 receptor [2]; SP after 0.7 nM antagonist
  Onset of receptor activation, morphology, SP: 0.009 ± 0.003 NCI min^−1
NK1 receptor [2]; U-251, SP after 0.07 nM antagonist, normalized to SP only, read-out: Emax morphology SP
  Emax: 96 ± 7.6%
NK1 receptor [2]; U-251, SP after 0.21 nM antagonist, normalized to SP only, read-out: Emax morphology SP
  Emax: 79 ± 5%
NK1 receptor [2]; U-251, SP after 0.7 nM antagonist, normalized to SP only, read-out: Emax morphology SP
  Emax: 53 ± 8.5%
NK1 receptor [2]; U-251, read-out: Emax morphology NKA, NKA after 0.07 nM antagonist, normalized to NKA only
  Emax: 97 ± 2.3%
NK1 receptor [2]; U-251, read-out: Emax morphology NKA, NKA after 0.21 nM antagonist, normalized to NKA only
  Emax: 79 ± 10%
NK1 receptor [2]; U-251, read-out: Emax morphology NKA, NKA after 0.7 nM antagonist, normalized to NKA only
  Emax: 30 ± 6.2%
NK1 receptor [2]
  decrease of onset of NKA-induced morphological changes: 8 fold
  decrease of onset of SP-induced impedance changes: 5 fold
  increase of EC50 value of NKA: 7 fold
NK1 receptor [3]
  receptor dissociation rate: 0.0054 min⁻¹

## C[C@@H](O[C@H]1OCCN(Cc2n[nH]c(=O)[nH]2)[C@H]1c1ccccc1)c1cc(C(F)(F)F)cc(C(F)(F)F)c1 [DFA, desfluoro aprepitant]
[1]; [8]
  Onset of receptor activation, cAMP, NKA: 98 ± 29^NS RLU min^−1
[1]; [14]
  Emax cAMP NKA: 84 ± 18^NS %
[1]; [9]
  Onset of receptor activation, cAMP, NKA: 98 ± 33^NS RLU min^−1
[1]; [15]
  Emax cAMP NKA: 67 ± 10 %
[1]; [10]
  Onset of receptor activation, cAMP, NKA: 71 ± 22^NS RLU min^−1
[1]; [16]
  Emax cAMP NKA: 61 ± 15 %
[1]; [11]
  Onset of receptor activation, cAMP, SP: 125 ± 31^NS RLU min^−1
[1]; [17]
  Emax cAMP SP: 78 ± 4.5 %
[1]; [12]
  Onset of receptor activation, cAMP, SP: 120 ± 27^NS RLU min^−1
[1]; [18]
  Emax cAMP SP: 75 ± 7.7 %
[1]; [13]
  Onset of receptor activation, cAMP, SP: 158 ± 26^NS RLU min^−1
[1]; [19]
  Emax cAMP SP: 61 ± 10 %
[1]; SP after 30 min pre-incubation with 0.07 nM antagonist, read-out: EC50 cAMP SP
  EC50: 1.9 ± 0.5 nM
[1]; SP after 30 min pre-incubation with 0.21 nM antagonist, read-out: EC50 cAMP SP
  EC50: 2.7 ± 0.8 nM
[1]; SP after 30 min pre-incubation with 0.7 nM antagonist, read-out: EC50 cAMP SP
  EC50: 2.3 ± 0.7 nM
[1]
  type of antagonism (insurmountability): partially insurmountable
[1]; antagonist pre-incubation, then EC80 concentration of NKA, read-out: IC50 (cAMP)
  IC50: 0.26 ± 0.08 nM
[1]; antagonist pre-incubation, then EC80 concentration of SP, read-out: IC50 (cAMP assay)
  IC50: 0.15 ± 0.02 nM
[1]; first 8 min
  decrease of onset of NKA-induced cAMP production: did not significantly decrease
[1]; cAMP assay
  decrease of potency of NKA: did not affect
[1]; cAMP assay, highest antagonist concentration
  decrease of Emax of SP in comparison to control: 39%
[1]; read-out: EC50 cAMP NKA, NKA after 30 min pre-incubation with 0.07 nM antagonist
  EC50: 399 ± 19 nM
[1]; read-out: EC50 cAMP NKA, NKA after 30 min pre-incubation with 0.21 nM antagonist
  EC50: 304 ± 89 nM
[1]; read-out: EC50 cAMP NKA, NKA after 30 min pre-incubation with 0.7 nM antagonist
  EC50: 1080 ± 356 nM
NK1 receptor [4]
  pKi: 9.3 ± 0.04
NK1 receptor [2]; NKA after 0.07 nM antagonist
  Onset of receptor activation, morphology, NKA: 0.06 ± 0.005^NS NCI min^−1
NK1 receptor [2]; [14]
  Emax morphology NKA: 109 ± 7.6^NS %
NK1 receptor [2]; NKA after 0.21 nM antagonist
  Onset of receptor activation, morphology, NKA: 0.05 ± 0.007^NS NCI min^−1
NK1 receptor [2]; [15]
  Emax morphology NKA: 108 ± 6.7^NS %
NK1 receptor [2]; NKA after 0.7 nM antagonist
  Onset of receptor activation, morphology, NKA: 0.04 ± 0.014^NS NCI min^−1
NK1 receptor [2]; [16]
  Emax morphology NKA: 81 ± 8.9 %
NK1 receptor [2]; SP after 0.07 nM antagonist
  Onset of receptor activation, morphology, SP: 0.06 ± 0.006^NS NCI min^−1
NK1 receptor [2]; [17]
  Emax morphology SP: 97 ± 5.6^NS %
NK1 receptor [2]; SP after 0.21 nM antagonist
  Onset of receptor activation, morphology, SP: 0.05 ± 0.006^NS NCI min^−1
NK1 receptor [2]; [18]
  Emax morphology SP: 104 ± 4.2^NS %
NK1 receptor [2]; SP after 0.7 nM antagonist
  Onset of receptor activation, morphology, SP: 0.03 ± 0.005 NCI min^−1
NK1 receptor [2]; [19]
  Emax morphology SP: 82 ± 6.9 %
NK1 receptor [2]; SP after 30 min pre-incubation with 0.07 nM antagonist, read-out: EC50 morphology SP
  EC50: 0.053 ± 0.02 nM
NK1 receptor [2]; SP after 30 min pre-incubation with 0.21 nM antagonist, read-out: EC50 morphology SP
  EC50: 0.06 ± 0.015 nM
NK1 receptor [2]; SP after 30 min pre-incubation with 0.7 nM antagonist, read-out: EC50 morphology SP
  EC50: 3 ± 1.3 nM
NK1 receptor [2]; then EC80 concentration of NKA, read-out: IC50 (morphology)
  IC50: 0.12 ± 0.006 nM
NK1 receptor [2]; then EC80 concentration of SP, read-out: IC50 (morphology assay)
  IC50: 0.22 ± 0.1 nM
NK1 receptor [2]
  decrease of onset of NKA-induced morphological changes: did not significantly decrease
  decrease of onset of SP-induced impedance changes: less significant
  increase of EC50 value of NKA: 2 fold
NK1 receptor [2]; read-out: EC50 morphology NKA, NKA after 30 min pre-incubation with 0.07 nM antagonist
  EC50: 3 ± 0.52 nM
NK1 receptor [2]; read-out: EC50 morphology NKA, NKA after 30 min pre-incubation with 0.21 nM antagonist
  EC50: 3.3 ± 0.45 nM
NK1 receptor [2]; read-out: EC50 morphology NKA, NKA after 30 min pre-incubation with 0.7 nM antagonist
  EC50: 8.5 ± 0.46 nM
NK1 receptor [5]
  KRI (kinetic rate index): 1.0 ± 0.13

## O=c1[nH]nc(CN2CCO[C@H](OCc3cc(C(F)(F)F)cc(C(F)(F)F)c3)[C@@H]2c2ccccc2)[nH]1 [L-742,694]
NK1 receptor [6]
  effect on Emax of SP after pre-incubation: clear decrease

## CSCC[C@H](NC(=O)[C@H](CC(C)C)NC(=O)CNC(=O)[C@@H](NC(=O)[C@H](Cc1ccccc1)NC(=O)[C@H](CO)NC(=O)[C@H](CC(=O)O)NC(=O)[C@@H](NC(=O)[C@H](CCCCN)NC(=O)[C@@H](N)Cc1c[nH]cn1)[C@@H](C)O)C(C)C)C(N)=O [NKA, neurokinin A]
NK1 receptor [7]
  Emax morphology NKA: 100 ± 0.44 %

## Cc1ccccc1-c1cc(N2CCN(C)CC2)ncc1N(C)C(=O)C(C)(C)c1cc(C(F)(F)F)cc(C(F)(F)F)c1 [netupitant]
NK1 receptor [6]
  type of antagonism: insurmountable
